Consider 32 molecules from patent US20240150321A1, “PYRAZOLYLSULFONAMIDE COMPOUNDS AND THEIR USE IN THERAPY” (HOTSPOT THERAPEUTICS, INC., priority 2022, published 2024).

pIC50: −log10 of the molar value. Like-named read-outs stand apart in the source and are kept apart here.

The test system of assay [1] is NF-kB reporter in Jurkat cells. Kind of assay: NF-kB reporter assay in Jurkat cells stimulated with aCD3/aCD28/PMA. The class given is cell-based. The following applies: read-out: NF-kB Reporter Assay IC50. The essentials:
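Luminescence (One-Glo) from the NF-kB reporter yielded IC50 values. Stimulation lasted 4 h at 37° C with aCD3, aCD28 and PMA (final 5, 5 and 0.03 […]), after 1 h compound pre-exposure of 25,000 Jurkat cells per well in serum-free RPMI.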
In general terms: A reporter such as luciferase makes a cellular process visible.

The next assay has as its target Avi-tagged FL MALT-1 (Homo sapiens (Human), UniProt Q9UDY8). Kind of assay: MALT-1 Fluorogenic Peptide Cleavage Assay (MALT1 inhibition assay). The note with it: Ac-LRSR-AMC peptide substrate, 30 min pre-incubation, 90 min reaction at room temperature. The class given is biochemical. The essentials:
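Cleavage of Ac-LRSR-AMC, read as fluorescence at 342/441 nm after 90 min at room temperature, with substrate working stocks of 50 μM (Km) or 280 μM (10×Km). Enzyme, Avi-tagged full-length MALT-1 (40 nM stock), was first pre-incubated 30 min with compound in citrate/HEPES pH 6.89 buffer with TCEP, EDTA, CHAPS and 2% DMSO; IC50 fitted from normalised % inhibition.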

Setting [2] is: Homo sapiens, Jurkat cells, 1 hr compound pre-incubation, aCD3/aCD28/PMA stimulation 4 hr, One-Glo readout.

Sequence of Avi-tagged FL MALT-1 (Q9UDY8 whole entry): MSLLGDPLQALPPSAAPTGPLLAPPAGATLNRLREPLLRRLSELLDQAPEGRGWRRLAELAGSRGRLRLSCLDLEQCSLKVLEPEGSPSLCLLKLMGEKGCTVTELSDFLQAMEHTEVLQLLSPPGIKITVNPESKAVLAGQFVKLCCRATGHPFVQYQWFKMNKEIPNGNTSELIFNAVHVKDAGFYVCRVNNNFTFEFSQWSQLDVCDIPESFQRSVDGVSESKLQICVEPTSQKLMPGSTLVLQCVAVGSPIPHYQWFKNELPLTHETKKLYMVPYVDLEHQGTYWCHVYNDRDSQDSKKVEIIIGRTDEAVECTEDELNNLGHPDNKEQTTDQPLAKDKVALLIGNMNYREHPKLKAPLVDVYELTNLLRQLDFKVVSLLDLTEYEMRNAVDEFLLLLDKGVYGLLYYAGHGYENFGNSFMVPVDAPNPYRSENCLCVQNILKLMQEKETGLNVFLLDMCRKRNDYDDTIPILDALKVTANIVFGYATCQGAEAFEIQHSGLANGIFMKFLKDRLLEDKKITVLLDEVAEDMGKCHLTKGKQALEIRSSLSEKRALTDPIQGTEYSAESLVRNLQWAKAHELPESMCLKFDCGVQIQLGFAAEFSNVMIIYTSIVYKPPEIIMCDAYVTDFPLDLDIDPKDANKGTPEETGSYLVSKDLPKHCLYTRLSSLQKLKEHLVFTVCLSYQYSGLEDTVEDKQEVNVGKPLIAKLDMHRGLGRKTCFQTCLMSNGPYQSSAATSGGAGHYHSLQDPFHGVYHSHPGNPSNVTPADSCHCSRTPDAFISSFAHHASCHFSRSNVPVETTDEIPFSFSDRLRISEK

For the molecule `Cn1ncc2cccc(NS(=O)(=O)c3cnn(-c4cc(N5CC[C@H](F)C5)ccn4)c3)c21` [Compound I-429, 1-{4-[(3S)-3-fluoropyrrolidin-1-yl]pyridin-2-yl}-N-(1-methylindazol-7-yl) pyrazole-4-sulfonamide], the pIC50 (usually −log10 of the IC50, conventionally taken in molar units) in assay [1] (setting [2]) was > 6.40; against Avi-tagged FL MALT-1, < 5.60.

As to `CN1CCC[C@H](n2cc(S(=O)(=O)Nc3cccc4cnn(C)c34)cn2)C1` [Compound I-309], the pIC50 (in assay [1] (setting [2]); against Avi-tagged FL MALT-1) was < 5.60 each time.

In the case of `COc1ccc2cnn(C)c2c1NS(=O)(=O)c1cnn(-c2cc(N3CC4CC3C4)ccn2)c1` [Compound I-432, 1-(4-(2-azabicyclo[2.1.1]hexan-2-yl)pyridin-2-yl)-N-(6-methoxy-1-methyl-1H-indazol-7-yl)-1H-pyrazole-4-sulfonamide], the pIC50 is > 6.40 in assay [1] (setting [2]) and 6.00 to 6.40 at Avi-tagged FL MALT-1.

On to `COc1ccc2cnn(C)c2c1NS(=O)(=O)c1cnn(-c2cc(N3CC(C)(C(N)=O)C3)ccn2)c1` [Compound I-472], for which the negative-log IC50 (pIC50) in assay [1] (setting [2]) was 5.60 to 6.00; against Avi-tagged FL MALT-1, < 5.60.

For `Cn1ncc2cccc(NS(=O)(=O)c3cnn(-c4cc(N5CC(C(N)=O)C5)ccn4)c3)c21` [Compound I-471, 1-(2-(4-(N-(1-methyl-1H-indazol-7-yl)sulfamoyl)-1H-pyrazol-1-yl)pyridin-4-yl)azetidine-3-carboxamide], the pIC50 (in assay [1] (setting [2]); against Avi-tagged FL MALT-1) was < 5.60 throughout.

Take `COc1ncc2cnn(C)c2c1NS(=O)(=O)c1cnn(-c2ccnc(C(F)(F)F)c2)c1` [Compound I-87, N-(6-Methoxy-1-Methyl-1H-Pyrazolo[4,3-C]Pyridin-7-yl)-1-(2-(Trifluoromethyl)Pyridin-4-yl)-1H-Pyrazole-4-Sulfonamide]: the pIC50 in assay [1] (setting [2]) is > 6.40; at Avi-tagged FL MALT-1, ≥ 6.40.

In the case of `Cn1ncc2ccc(OC(F)(F)F)c(NS(=O)(=O)c3cnn(-c4cc(C(F)(F)F)ccn4)c3)c21` [Compound I-327, N-[1-methyl-6-(trifluoromethoxy)indazol-7-yl]-1-[4-(trifluoromethyl)pyridin-2-yl]pyrazole-4-sulfonamide], the pIC50 is > 6.40 in assay [1] (Homo sapiens, Jurkat) and ≥ 6.40 against Avi-tagged FL MALT-1.

As for `CCc1ccc2cnn(C)c2c1NS(=O)(=O)c1cnn(-c2cc(C)nc(C)c2)c1` [Compound I-32, 1-(2,6-Dimethylpyridin-4-yl)-N-(6-ethyl-1-Methyl-1H-Indazol-7-yl)-1H-Pyrazole-4-Sulfonamide], the values for the negative logarithm of the IC50 (pIC50) (in assay [1] (setting [2]); against Avi-tagged FL MALT-1) were 6.00 to 6.40 and ≥ 6.40, respectively.

In the case of `Cn1ncc2cccc(NS(=O)(=O)c3cnn(-c4ccnc(C(F)(F)F)c4)c3)c21` [Compound I-16, N-(1-Methyl-1H-Indazol-7-yl)-1-(2-(Trifluoromethyl)Pyridin-4-yl)-1H-Pyrazole-4-Sulfonamidemide], the pIC50 (in assay [1] (setting [2]); at Avi-tagged FL MALT-1) was < 5.60 each time.

`COc1ncc2cnn(C)c2c1NS(=O)(=O)c1cnn(-c2cc(C(F)(F)F)nn2C)c1` [Compound I-241]: the pIC50 (in assay [1] (setting [2]); on Avi-tagged FL MALT-1) was < 5.60 throughout.

With `COc1ccc2cnn(C)c2c1NS(=O)(=O)c1cnn(-c2cc(N3CCC(C)(C)C3)ccn2)c1` [Compound I-434], the results for the pIC50 (in assay [1] (setting [2]); on Avi-tagged FL MALT-1) were > 6.40 and < 5.60, respectively.

`COc1ccc2cnn(C)c2c1NS(=O)(=O)c1cnn(-c2cc(N3CC4CC(C4)C3)ccn2)c1` [Compound I-404]: the pIC50 in assay [1] (setting [2]) is > 6.40; against Avi-tagged FL MALT-1, < 5.60.

`COc1ccc2cnn(C)c2c1NS(=O)(=O)c1cnn(-c2cc(N3CCOCC3)ccn2)c1` [Compound I-384]: the negative logarithm of the IC50 (pIC50) is > 6.40 in assay [1] (setting [2]) and < 5.60 against Avi-tagged FL MALT-1.

Consider `Cn1ncc2cccc(NS(=O)(=O)c3cnn(-c4cc(N5CC(C)(C(N)=O)C5)ccn4)c3)c21` [Compound I-458], for which the negative logarithm of the IC50 (pIC50) (in assay [1] (setting [2]); at Avi-tagged FL MALT-1) was < 5.60 in each case.

With `[2H]C([2H])([2H])n1ncc2ccc(OC)c(N(C)S(=O)(=O)c3cnn(-c4cc(C(F)(F)F)ccn4)c3)c21` [Compound I-336, N-(6-methoxy-1-(methyl-d3)-1H-indazol-7-yl)-N-methyl-1-(4-(trifluoromethyl)pyridin-2-yl)-1H-pyrazole-4-sulfonamide], the pIC50 was > 6.40 in assay [1] (setting [2]) and ≥ 6.40 at Avi-tagged FL MALT-1.

Take `Cn1ncc2cccc(NS(=O)(=O)c3cnn(-c4cc(C5(O)CCOC5)ccn4)c3)c21` (stereo in doubt) [Compound I-312, (R)-1-(4-(3-hydroxytetrahydrofuran-3-yl)pyridin-2-yl)-N-(1-methyl-1H-indazol-7-yl)-1H-pyrazole-4-sulfonamide]: the pIC50 is > 6.40 in assay [1] (setting [2]) and < 5.60 against Avi-tagged FL MALT-1.

As to `Cn1ncc2cccc(NS(=O)(=O)c3cnn(-c4cc(C(F)(F)F)c(F)cn4)c3)c21` [Compound I-122, 1-(5-fluoro-4-(trifluoromethyl)pyridin-2-yl)-N-(1-methyl-1H-indazol-7-yl)-1H-pyrazole-4-sulfonamide], the pIC50 in assay [1] (setting [2]) is > 6.40; on Avi-tagged FL MALT-1, 6.00 to 6.40.

Consider `COCC(C)(C)c1ccnc(-n2cc(S(=O)(=O)Nc3c(OC)ccc4cnn(C)c34)cn2)c1` [Compound I-482, N-(6-methoxy-1-methyl-1H-indazol-7-yl)-1-(4-(1-methoxy-2-methylpropan-2-yl)pyridin-2-yl)-1H-pyrazole-4-sulfonamide], for which the pIC50 in assay [1] (setting [2]) was > 6.40; at Avi-tagged FL MALT-1 it was 6.00 to 6.40.

For `Cn1ncc2cccc(NS(=O)(=O)c3cnn(-c4cc(N5CCOC5=O)ccn4)c3)c21` [Compound I-282, N-(1-methyl-1H-indazol-7-yl)-1-(4-(2-oxooxazolidin-3-yl)pyridin-2-yl)-1H-pyrazole-4-sulfonamide], the pIC50 was > 6.40 in assay [1] (setting [2]) and < 5.60 on Avi-tagged FL MALT-1.

For the molecule `CC(=O)N1CC(O)(c2ccnc(-n3cc(S(=O)(=O)Nc4cccc5cnn(C)c45)cn3)c2)C1` [Compound I-287], the pIC50 (in assay [1] (setting [2]); at Avi-tagged FL MALT-1) was < 5.60 throughout.

`COCC(F)(COC)c1ccnc(-n2cc(S(=O)(=O)Nc3cccc4cnn(C)c34)cn2)c1` [Compound I-289]: the pIC50 (in assay [1] (setting [2]); on Avi-tagged FL MALT-1) was < 5.60 each time.

For `COc1ccc2cnn(C)c2c1NS(=O)(=O)c1cnn(-c2cc(N3CC[C@@H](F)C3)ccn2)c1` [Compound I-423], the pIC50 in assay [1] (setting [2]) was > 6.40; at Avi-tagged FL MALT-1, < 5.60.

Consider `C[C@@H]1CN(C)C(=O)N1c1ccnc(-n2cc(S(=O)(=O)Nc3cccc4cnn(C)c34)cn2)c1` [Compound I-348], for which the pIC50 was > 6.40 in assay [1] (setting [2]) and < 5.60 at Avi-tagged FL MALT-1.

With `Cn1ncc2cccc(NS(=O)(=O)c3cnn(-c4cc(C5(O)CCOCC5)ccn4)c3)c21` [Compound I-129, 1-(4-(4-hydroxytetrahydro-2H-pyran-4-yl)pyridin-2-yl)-N-(1-methyl-1H-indazol-7-yl)-1H-pyrazole-4-sulfonamide], the pIC50 is 6.00 to 6.40 in assay [1] (setting [2]) and < 5.60 against Avi-tagged FL MALT-1.

As to `COc1cc(NS(=O)(=O)c2cnn(-c3ccnc(C(F)(F)F)c3)c2)c2c(cnn2C)c1` [Compound I-58, N-(5-Methoxy-1-Methyl-1H-Indazol-7-yl)-1-(2-(Trifluoromethyl)Pyridin-4-yl)-1H-Pyrazole-4-Sulfonamide], the negative logarithm of the IC50 (pIC50) (in assay [1] (setting [2]); on Avi-tagged FL MALT-1) was < 5.60 in each case.

As for `Cn1ncc2cccc(NS(=O)(=O)c3cnn(-c4cnn5c4OCCC5)c3)c21` [Compound I-465, N-(1-methylindazol-7-yl)-1-{5H,6H,7H-pyrazolo[3,2-b][1,3]oxazin-3-yl}pyrazole-4-sulfonamide], the results for the pIC50 (in assay [1] (setting [2]); against Avi-tagged FL MALT-1) were 5.60 to 6.00 and < 5.60, respectively.

Take `COc1ccc2cnn(C)c2c1NS(=O)(=O)c1cnn(-c2cc(N3CC(F)C3)ccn2)c1` [Compound I-442]: the values for the pIC50 (in assay [1] (setting [2]); against Avi-tagged FL MALT-1) were > 6.40 and 5.60 to 6.00, respectively.

For the molecule `COC[C@@H](O)c1ccnc(-n2cc(S(=O)(=O)Nc3cccc4cnn(C)c34)cn2)c1` [Compound I-304], the pIC50 in assay [1] (setting [2]) is 6.00 to 6.40; against Avi-tagged FL MALT-1, < 5.60.

With `Cn1ncc2cccc(NS(=O)(=O)c3cnn(-c4cc(C5(F)CC(F)C5)ccn4)c3)c21` (stereo not shown) [Compound I-376, 1-(4-(1,3-difluorocyclobutyl)pyridin-2-yl)-N-(1-methyl-1H-indazol-7-yl)-1H-pyrazole-4-sulfonamide], the pIC50 was > 6.40 in assay [1] (Jurkat cells, 1 hr compound pre-incubation, aCD3/aCD28/PMA stimulation 4 hr, One-Glo readout) and < 5.60 at Avi-tagged FL MALT-1.

With `COc1ccc2cnn(C)c2c1NS(=O)(=O)c1cnn(-c2cc(C3CC3)ccn2)c1` [Compound I-57, 1-(4-Cyclopropylpyridin-2-yl)-N-(6-Methoxy-1-Methyl-1H-Indazol-7-yl)-1H-Pyrazole-4-Sulfonamide], the pIC50 in assay [1] (setting [2]) is > 6.40; on Avi-tagged FL MALT-1, ≥ 6.40.

As to `Cc1ccnc(-n2cc(S(=O)(=O)N(C)c3cccc4[nH]nc(C)c34)cn2)c1` [Compound I-66, N-Methyl-N-(3-Methyl-1H-Indazol-4-yl)-1-(4-Methylpyridin-2-yl)-1H-Pyrazole-4-Sulfonamide], the pIC50 (in assay [1] (setting [2]); against Avi-tagged FL MALT-1) was < 5.60 each time.

On to `CCC(C)(O)c1ccnc(-n2cc(S(=O)(=O)Nc3c(OC)ccc4cnn(C)c34)cn2)c1` (single isomer, unassigned) [Compound I-315, 1-(4-(2-hydroxybutan-2-yl)pyridin-2-yl)-N-(6-methoxy-1-methyl-1H-indazol-7-yl)-1H-pyrazole-4-sulfonamide], for which the pIC50 in assay [1] (setting [2]) is > 6.40; at Avi-tagged FL MALT-1, 6.00 to 6.40.
